According to ChEMBL document CHEMBL1909046, “DrugMatrix in vitro pharmacology data”:

Tests used:
B2 bradykinin receptor = biological target: T1, B2 bradykinin receptor (Homo sapiens, UniProt P30411); assay type: cell membranes, Membrane; conditions: chem-1; also: in other assays of this panel Not Active means under 50% inhibition at 10 µM
T1 sequence (P30411 whole entry): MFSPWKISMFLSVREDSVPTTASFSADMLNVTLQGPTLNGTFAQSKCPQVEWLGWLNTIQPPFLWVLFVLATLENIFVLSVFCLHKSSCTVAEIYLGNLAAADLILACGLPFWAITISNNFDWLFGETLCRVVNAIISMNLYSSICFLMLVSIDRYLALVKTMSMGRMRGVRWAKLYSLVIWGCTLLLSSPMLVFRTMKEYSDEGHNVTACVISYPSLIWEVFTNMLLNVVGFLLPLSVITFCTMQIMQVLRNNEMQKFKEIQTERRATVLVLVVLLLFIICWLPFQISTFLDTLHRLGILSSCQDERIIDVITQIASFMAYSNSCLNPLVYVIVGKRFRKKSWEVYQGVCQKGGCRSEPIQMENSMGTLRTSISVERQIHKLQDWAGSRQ

[1] = biological target: Sodium-dependent dopamine transporter (Homo sapiens, UniProt Q01959); test: DRUGMATRIX: Dopamine Transporter radioligand binding (ligand: [125I] RTI-55); assay type: cell membranes, CHO-K1, Membrane; conditions: Not Active = under 50% inhibition at 10 µM
Sequence of Sodium-dependent dopamine transporter (Q01959 whole entry): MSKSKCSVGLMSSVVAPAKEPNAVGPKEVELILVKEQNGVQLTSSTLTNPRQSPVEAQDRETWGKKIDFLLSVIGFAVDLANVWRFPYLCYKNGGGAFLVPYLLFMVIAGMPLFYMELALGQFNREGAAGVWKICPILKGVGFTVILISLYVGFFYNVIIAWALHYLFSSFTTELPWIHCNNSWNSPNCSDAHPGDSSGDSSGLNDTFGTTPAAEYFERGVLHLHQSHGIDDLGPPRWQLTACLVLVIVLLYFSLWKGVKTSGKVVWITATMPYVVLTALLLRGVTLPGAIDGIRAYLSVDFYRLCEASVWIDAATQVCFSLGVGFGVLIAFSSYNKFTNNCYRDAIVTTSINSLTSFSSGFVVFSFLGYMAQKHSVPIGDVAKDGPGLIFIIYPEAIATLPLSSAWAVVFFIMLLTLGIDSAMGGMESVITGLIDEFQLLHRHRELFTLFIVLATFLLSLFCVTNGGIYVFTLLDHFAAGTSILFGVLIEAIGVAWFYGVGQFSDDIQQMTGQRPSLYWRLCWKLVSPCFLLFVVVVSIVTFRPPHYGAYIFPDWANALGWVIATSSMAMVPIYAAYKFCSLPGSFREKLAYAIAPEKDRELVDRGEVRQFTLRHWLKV

[2] = biological target: T2, Muscarinic acetylcholine receptor M2 (Homo sapiens, UniProt P08172); assay type: cell membranes, CHO-K1, Membrane; conditions: cho-k1; also: in other assays of this panel Not Active means under 50% inhibition at 10 µM
T2 sequence (P08172 whole entry): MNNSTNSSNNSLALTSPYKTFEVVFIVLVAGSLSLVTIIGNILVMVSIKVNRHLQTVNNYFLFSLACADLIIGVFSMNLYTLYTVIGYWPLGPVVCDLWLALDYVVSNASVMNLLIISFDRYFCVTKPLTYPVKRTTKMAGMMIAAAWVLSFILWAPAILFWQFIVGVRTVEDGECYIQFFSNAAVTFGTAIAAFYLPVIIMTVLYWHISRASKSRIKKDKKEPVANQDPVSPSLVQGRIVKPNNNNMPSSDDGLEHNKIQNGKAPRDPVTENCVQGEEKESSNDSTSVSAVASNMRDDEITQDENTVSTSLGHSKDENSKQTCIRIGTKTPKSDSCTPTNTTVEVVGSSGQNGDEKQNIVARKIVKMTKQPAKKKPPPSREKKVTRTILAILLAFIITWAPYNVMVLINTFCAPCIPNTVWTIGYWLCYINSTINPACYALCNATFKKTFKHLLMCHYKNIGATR

[3] = biological target: Kappa-type opioid receptor (Homo sapiens, UniProt P41145); test: DRUGMATRIX: Opiate kappa (OP2, KOP) radioligand binding (ligand: [3H] Diprenorphine); assay type: cell membranes, HEK293, Membrane; conditions: hek293; Not Active = under 50% inhibition at 10 µM
Sequence of Kappa-type opioid receptor (P41145 whole entry): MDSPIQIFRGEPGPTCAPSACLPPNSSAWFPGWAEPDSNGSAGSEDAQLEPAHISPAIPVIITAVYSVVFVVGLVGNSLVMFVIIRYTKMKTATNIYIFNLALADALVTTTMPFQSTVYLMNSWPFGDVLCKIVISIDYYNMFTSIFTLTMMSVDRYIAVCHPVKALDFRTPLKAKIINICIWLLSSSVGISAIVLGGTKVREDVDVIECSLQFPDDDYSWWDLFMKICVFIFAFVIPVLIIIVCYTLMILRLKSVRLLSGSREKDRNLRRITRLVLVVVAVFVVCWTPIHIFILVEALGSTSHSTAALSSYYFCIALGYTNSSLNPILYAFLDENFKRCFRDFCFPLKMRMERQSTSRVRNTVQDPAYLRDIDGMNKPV

Progesterone receptor = biological target: T3, Progesterone receptor (Bos taurus, UniProt Q690N0); test: DRUGMATRIX: Progesterone radioligand binding (ligand: [3H] R-5020); assay type: tissue-based, Uterus; conditions: Not Active = under 50% inhibition at 10 µM
T3 sequence (Q690N0 whole entry): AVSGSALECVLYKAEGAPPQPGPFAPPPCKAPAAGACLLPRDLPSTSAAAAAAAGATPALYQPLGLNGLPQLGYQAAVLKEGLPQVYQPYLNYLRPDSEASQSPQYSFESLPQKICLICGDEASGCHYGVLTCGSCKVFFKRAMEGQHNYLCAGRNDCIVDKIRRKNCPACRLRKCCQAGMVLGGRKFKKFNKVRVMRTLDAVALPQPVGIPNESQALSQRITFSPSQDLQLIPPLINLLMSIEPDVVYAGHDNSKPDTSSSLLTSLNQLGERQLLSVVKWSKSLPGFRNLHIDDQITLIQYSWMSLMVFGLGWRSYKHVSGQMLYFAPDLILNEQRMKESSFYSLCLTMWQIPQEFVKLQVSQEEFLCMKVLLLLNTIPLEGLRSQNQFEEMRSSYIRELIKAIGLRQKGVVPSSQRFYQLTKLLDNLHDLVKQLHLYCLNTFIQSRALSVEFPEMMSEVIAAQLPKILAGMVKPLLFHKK

[4] = biological target: T4, Angiotensin-converting enzyme (Oryctolagus cuniculus, UniProt P12822); assay type: tissue-based, Lung;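 also: enzymatic inhibition of angiotensin-converting enzyme measured with FAPGG as the substrate; in other assays of this panel Not Active means under 50% inhibition at 10 µM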
T4 sequence (P12822 whole entry): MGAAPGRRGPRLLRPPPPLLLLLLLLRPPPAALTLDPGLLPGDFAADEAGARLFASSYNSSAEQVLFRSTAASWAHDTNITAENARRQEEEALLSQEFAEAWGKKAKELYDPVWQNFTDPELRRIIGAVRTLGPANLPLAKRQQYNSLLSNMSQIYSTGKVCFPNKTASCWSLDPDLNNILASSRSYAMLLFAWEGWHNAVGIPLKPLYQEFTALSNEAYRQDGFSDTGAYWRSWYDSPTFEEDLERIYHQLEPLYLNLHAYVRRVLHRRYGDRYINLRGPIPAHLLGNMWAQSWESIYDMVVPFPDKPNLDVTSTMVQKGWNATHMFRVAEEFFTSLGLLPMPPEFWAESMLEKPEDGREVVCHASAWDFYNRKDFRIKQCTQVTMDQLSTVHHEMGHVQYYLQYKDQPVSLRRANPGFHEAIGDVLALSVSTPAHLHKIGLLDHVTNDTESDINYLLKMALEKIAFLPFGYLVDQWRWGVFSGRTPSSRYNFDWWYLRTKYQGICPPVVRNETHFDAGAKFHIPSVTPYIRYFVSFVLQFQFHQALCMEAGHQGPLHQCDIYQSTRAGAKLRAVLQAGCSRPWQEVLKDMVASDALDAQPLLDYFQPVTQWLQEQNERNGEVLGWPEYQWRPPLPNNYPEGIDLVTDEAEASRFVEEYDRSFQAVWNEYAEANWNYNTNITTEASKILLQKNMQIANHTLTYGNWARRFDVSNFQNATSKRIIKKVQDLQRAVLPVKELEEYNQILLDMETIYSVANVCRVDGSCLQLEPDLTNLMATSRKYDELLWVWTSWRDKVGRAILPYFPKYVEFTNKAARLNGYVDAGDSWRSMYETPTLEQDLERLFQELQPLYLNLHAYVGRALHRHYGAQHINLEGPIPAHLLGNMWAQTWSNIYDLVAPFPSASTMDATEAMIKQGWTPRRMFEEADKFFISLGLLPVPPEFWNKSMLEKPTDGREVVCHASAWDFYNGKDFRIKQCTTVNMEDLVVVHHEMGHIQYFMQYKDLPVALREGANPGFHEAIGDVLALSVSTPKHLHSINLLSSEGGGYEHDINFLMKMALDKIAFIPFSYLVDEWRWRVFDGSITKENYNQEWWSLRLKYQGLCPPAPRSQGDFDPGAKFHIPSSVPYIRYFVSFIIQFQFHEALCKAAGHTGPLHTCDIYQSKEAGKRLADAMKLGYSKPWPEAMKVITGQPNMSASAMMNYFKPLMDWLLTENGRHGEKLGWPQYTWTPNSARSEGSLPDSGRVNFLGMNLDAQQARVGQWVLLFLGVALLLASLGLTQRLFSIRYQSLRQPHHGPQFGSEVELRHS

| Structure (SMILES) | IC50 (B2 bradykinin receptor) | IC50 ([1]; cho-k1) | IC50 [2] | IC50 [3] | IC50 (Progesterone receptor) | IC50 [4] | IC50 ([1]; read-out: IC50) | Ki ([1]; read-out: Ki) |
| --- | --- | --- | --- | --- | --- | --- | --- | --- |
| C=C1/C(=C\C=C2/CCC[C@]3(C)[C@@H]([C@H](C)CCCC(C)C)CC[C@@H]23)C[C@@H](O)C[C@@H]1O [ALFACALCIDOL] | Not Active | Not Active | Not Active | Not Active | Not Active | Not Active | – | – |
| NC(=O)N1c2ccccc2C=Cc2ccccc21 [CARBAMAZEPINE] | Not Active | Not Active | Not Active | Not Active | Not Active | Not Active | – | – |
| CNC(=C[N+](=O)[O-])NCCSCc1csc(CN(C)C)n1 [NIZATIDINE] | Not Active | Not Active | Not Active | Not Active | Not Active | Not Active | – | – |
| COc1ccccc1OCC(O)CO (centres undefined) [GUAIFENESIN] | Not Active | Not Active | Not Active | Not Active | Not Active | Not Active | – | – |
| O=C(c1ccccc1Cl)N1CCC(Cc2ccccc2)CC1 | Not Active | Not Active | Not Active | Not Active | Not Active | Not Active | – | – |
| Cc1cccc(Nc2cc(Cl)nc(SCC(=O)O)n2)c1C [PIRINIXIC ACID] | Not Active | Not Active | Not Active | Not Active | Not Active | Not Active | – | – |
| CC(CCc1ccc(O)cc1)NCCc1ccc(O)c(O)c1 (centres undefined) [DOBUTAMINE] | Not Active | – | Not Active | Not Active | Not Active | Not Active | 155 nM | 123 nM |
| CC(C)(Sc1cc(C(C)(C)C)c(O)c(C(C)(C)C)c1)Sc1cc(C(C)(C)C)c(O)c(C(C)(C)C)c1 [PROBUCOL] | Not Active | Not Active | Not Active | Not Active | Not Active | Not Active | – | – |
| C/C=C\c1ccc(O)c(OC)c1 [ISOEUGENOL] | Not Active | Not Active | Not Active | Not Active | Not Active | Not Active | – | – |
| [N-]=[N+]=CC(=O)OC[C@H](N)C(=O)O [AZASERINE] | Not Active | Not Active | Not Active | Not Active | Not Active | Not Active | – | – |
| CCOC(=O)C1=C(C)NC(C)=C(C(=O)OC)C1c1cccc(Cl)c1Cl (centres undefined) [FELODIPINE] | Not Active | Not Active | Not Active | Not Active | Not Active | Not Active | – | – |
| C[C@H](C(=O)O)c1cccc(C(=O)c2ccccc2)c1 [DEXKETOPROFEN] | Not Active | Not Active | Not Active | Not Active | Not Active | Not Active | – | – |
| Cc1cn[nH]c1 [FOMEPIZOLE] | Not Active | Not Active | Not Active | Not Active | Not Active | Not Active | – | – |
| O=c1cc(-c2ccccc2)oc2ccc3ccccc3c12 [BETA-NAPHTHOFLAVONE] | Not Active | Not Active | Not Active | Not Active | Not Active | Not Active | – | – |
| Cc1c(N(C)CS(=O)(=O)[O-])c(=O)n(-c2ccccc2)n1C.[Na+] [DIPYRONE SODIUM] | Not Active | Not Active | Not Active | Not Active | Not Active | Not Active | – | – |
| CN1C(=O)CN=C(c2ccccc2)c2cc(Cl)ccc21 [DIAZEPAM] | Not Active | Not Active | Not Active | Not Active | Not Active | Not Active | – | – |
| CO[C@H]1[C@@H](O)[C@H](N)[C@@H](O[C@H]2O[C@H]([C@H](C)N)CC[C@H]2N)[C@H](O)[C@@H]1N(C)C(=O)CN [ASTROMICIN] | Not Active | Not Active | Not Active | Not Active | Not Active | Not Active | – | – |
| CCn1cc(C(=O)O)c(=O)c2cc(F)c(N3CCNCC3)nc21 [ENOXACIN] | Not Active | Not Active | Not Active | Not Active | Not Active | Not Active | – | – |
| CCC(=O)O[C@H]1[C@H](O[C@@H]2[C@@H](C)[C@H](O[C@H]3C[C@@](C)(OC)[C@@H](O)[C@H](C)O3)[C@@H](C)C(=O)O[C@H](CC)[C@@](C)(O)[C@H](O)[C@@H](C)C(=O)[C@H](C)C[C@@]2(C)O)O[C@H](C)C[C@@H]1N(C)C [ERYTHROMYCIN PROPIONATE] | Not Active | Not Active | Not Active | Not Active | Not Active | Not Active | – | – |
| N[C@@H](Cc1ccc(F)cc1)C(=O)O | Not Active | Not Active | Not Active | Not Active | Not Active | Not Active | – | – |
| O=C(O)Cc1ccc(-c2ccccc2)cc1 [FELBINAC] | Not Active | Not Active | Not Active | Not Active | Not Active | Not Active | – | – |
| NC[C@H]1O[C@H](O[C@H]2[C@H](O)[C@@H](O[C@H]3O[C@H](CO)[C@@H](O)[C@H](N)[C@H]3O)[C@H](N)C[C@@H]2N)[C@H](O)[C@@H](O)[C@@H]1O [KANAMYCIN] | Not Active | Not Active | Not Active | Not Active | Not Active | Not Active | – | – |
| N=C(N)N/N=C/c1c(Cl)cccc1Cl [GUANABENZ] | Not Active | Not Active | Not Active | Not Active | Not Active | Not Active | – | – |
